Key:
[1] = Photostability in solution (THF and water), HPLC; format: physicochemical; conditions: in solution (THF and water), sealed under nitrogen in amber glass bottles; for degradation (in words): up to 171 hours
Experimental: (§1) The method for determining purity by HPLC—used throughout these examples—used the following parameters:
(§2) The photostability of novel crystalline forms of QTX125 was assessed at solid state and in solution. Where ‘forced illumination’ conditions were used, samples were illuminated at 12 Klux/hour and 2.8 UV W/m^2/hour. Samples were stored at a temperature of 30° C. Following incubation, the chemical purity of QTX125 was measured by HPLC.
(§3) The following index is provided to aid navigation of the data presented in Tables 3.1.1 to 3.3.6: • 3.1.x—Assessment of the photostability of QTX125 Form 2. • 3.2.x—Assessment of the photostability of amorphous QTX125. • 3.3.x—Assessment of the photostability of the QTX125 1:2 L-Lysine adduct. • 3.x.1—Samples (at solid state) stored in unsealed clear glass bottles, subject to forced illumination. • 3.x.2—Samples (at solid state) sealed under nitrogen in clear glass bottles, subject to forced illumination. • 3.x.3—Samples (at solid state) sealed under nitrogen in amber glass bottles, illuminated under ambient laboratory conditions • 3.x.4—Samples (at solid state) sealed under nitrogen in amber glass bottles, subject to forced illumination. • 3.x.5—Samples (in solution) sealed under nitrogen in amber glass bottles, illuminated under ambient laboratory conditions. • 3.x.6—Samples (in solution) sealed under nitrogen in amber glass bottles, subject to forced illumination.

[2] = Photostability at solid state (chemical purity by HPLC after illumination); format: physicochemical; conditions: solid-state; for degradation (in words): up to 171 hours
Experimental: as §1, §2, §3

[3] = ambient laboratory conditions, 0 hours
[4] = ambient laboratory conditions, 3 hours
[5] = ambient laboratory conditions, 50 hours
[6] = ambient laboratory conditions, 171 hours
[7] = ambient laboratory conditions, 171 hours, listed as Amorphous
[8] = forced illumination, 171 hours, listed as Amorphous
[9] = sealed under nitrogen in amber glass bottles, ambient laboratory conditions, 0 hours
[10] = sealed under nitrogen in amber glass bottles, ambient laboratory conditions, 3 hours
[11] = sealed under nitrogen in amber glass bottles, ambient laboratory conditions, 50 hours
[12] = sealed under nitrogen in amber glass bottles, ambient laboratory conditions, 171 hours
[13] = sealed under nitrogen in amber glass bottles, ambient laboratory conditions, 171 hours, listed as Amorphous
[14] = sealed under nitrogen in amber glass bottles, forced illumination, 0 hours
[15] = sealed under nitrogen in amber glass bottles, forced illumination, 3 hours
[16] = sealed under nitrogen in amber glass bottles, forced illumination, 50 hours
[17] = sealed under nitrogen in amber glass bottles, forced illumination, 171 hours
[18] = sealed under nitrogen in amber glass bottles, forced illumination, 171 hours, listed as Amorphous
[19] = sealed under nitrogen in clear glass bottles, forced illumination
[20] = sealed under nitrogen in clear glass bottles, forced illumination, 0 hours
[21] = sealed under nitrogen in clear glass bottles, forced illumination, 3 hours
[22] = sealed under nitrogen in clear glass bottles, forced illumination, 50 hours
[23] = sealed under nitrogen in clear glass bottles, forced illumination, 171 hours
[24] = unsealed clear glass bottles, forced illumination
[25] = unsealed clear glass bottles, forced illumination, 0 hours
[26] = unsealed clear glass bottles, forced illumination, 3 hours
[27] = unsealed clear glass bottles, forced illumination, 50 hours
[28] = unsealed clear glass bottles, forced illumination, 171 hours

SMILES: O=C(NO)c1ccc(CNC(=O)c2[nH]c(-c3ccc(O)cc3)cc2-c2ccoc2)cc1 [amorphous QTX125, 3-(3-Furyl)-N-{4-[(hydroxyamino)carbonyl]benzyl}-5-(4-hydroxyphenyl)-1H-pyrrole-2-carboxamide]
- HPLC peak area, QTX125 RRT 1.00 [1, 3]: 96.74%
- HPLC peak area, RRT 1.04 [1, 3]: 1.32%
- HPLC peak area, RRT 1.12 [1, 3]: 0.35%
- HPLC peak area, QTX125 RRT 1.00 [1, 4]: 92.10%
- HPLC peak area, RRT 1.04 [1, 4]: 0.94%
- HPLC peak area, RRT 1.12 [1, 4]: 0.48%
- HPLC peak area, QTX125 RRT 1.00 [1, 5]: 95.89%
- HPLC peak area, RRT 1.04 [1, 5]: 1.03%
- HPLC peak area, RRT 1.12 [1, 5]: 0.54%
- HPLC peak area, QTX125 RRT 1.00 [1, 6]: 91.98%
- HPLC peak area, RRT 1.04 [1, 6]: 2.30%
- HPLC peak area, RRT 1.12 [1, 6]: 1.14%
- HPLC peak area, QTX125 RRT 1.00 [1, 7]: 91.98%
- HPLC peak area, RRT 1.04 [1, 7]: 2.30%
- HPLC peak area, RRT 1.12 [1, 7]: 1.14%
- degradation (in words) ([1]; ambient laboratory conditions): degrades
- HPLC peak area, QTX125 RRT 1.00 ([1]; forced illumination, 0 hours): 96.74%
- HPLC peak area, RRT 1.04 ([1]; forced illumination, 0 hours): 1.32%
- HPLC peak area, RRT 1.12 ([1]; forced illumination, 0 hours): 0.35%
- HPLC peak area, QTX125 RRT 1.00 ([1]; forced illumination, 3 hours): 96.31%
- HPLC peak area, RRT 1.04 ([1]; forced illumination, 3 hours): 0.92%
- HPLC peak area, RRT 1.12 ([1]; forced illumination, 3 hours): 0.46%
- HPLC peak area, QTX125 RRT 1.00 ([1]; forced illumination, 50 hours): 94.55%
- HPLC peak area, RRT 1.04 ([1]; forced illumination, 50 hours): 1.27%
- HPLC peak area, RRT 1.12 ([1]; forced illumination, 50 hours): 0.55%
- HPLC peak area, QTX125 RRT 1.00 ([1]; forced illumination, 171 hours): 87.29%
- HPLC peak area, RRT 1.04 ([1]; forced illumination, 171 hours): 2.33%
- HPLC peak area, RRT 1.12 ([1]; forced illumination, 171 hours): 1.03%
- HPLC peak area, QTX125 RRT 1.00 [1, 8]: 87.29%
- HPLC peak area, RRT 1.04 [1, 8]: 2.33%
- HPLC peak area, RRT 1.12 [1, 8]: 1.03%
- degradation (in words) ([1]; forced illumination): degrades
- HPLC peak area, QTX125 RRT 1.00 [2, 9]: 96.74%
- HPLC peak area, RRT 1.04 [2, 9]: 1.32%
- HPLC peak area, RRT 1.12 [2, 9]: 0.35%
- HPLC peak area, QTX125 RRT 1.00 [2, 10]: 96.75%
- HPLC peak area, RRT 1.04 [2, 10]: 1.26%
- HPLC peak area, RRT 1.12 [2, 10]: 0.36%
- HPLC peak area, QTX125 RRT 1.00 [2, 11]: 96.61%
- HPLC peak area, RRT 1.04 [2, 11]: 0.71%
- HPLC peak area, RRT 1.12 [2, 11]: 0.39%
- HPLC peak area, QTX125 RRT 1.00 [2, 12]: 96.16%
- HPLC peak area, RRT 1.04 [2, 12]: 1.46%
- HPLC peak area, RRT 1.12 [2, 12]: 0.39%
- HPLC peak area, QTX125 RRT 1.00 [2, 13]: 96.16%
- HPLC peak area, RRT 1.04 [2, 13]: 1.46%
- degradation (in words) ([2]; sealed under nitrogen in amber glass bottles, ambient laboratory conditions): evidence of slight degradation
- HPLC peak area, QTX125 RRT 1.00 [2, 14]: 96.74%
- HPLC peak area, RRT 1.04 [2, 14]: 1.32%
- HPLC peak area, RRT 1.12 [2, 14]: 0.35%
- HPLC peak area, QTX125 RRT 1.00 [2, 15]: 96.94%
- HPLC peak area, RRT 1.04 [2, 15]: 1.04%
- HPLC peak area, RRT 1.12 [2, 15]: 0.35%
- HPLC peak area, QTX125 RRT 1.00 [2, 16]: 96.12%
- HPLC peak area, RRT 1.04 [2, 16]: 1.09%
- HPLC peak area, RRT 1.12 [2, 16]: 0.38%
- HPLC peak area, QTX125 RRT 1.00 [2, 17]: 94.43%
- HPLC peak area, RRT 1.04 [2, 17]: 1.70%
- HPLC peak area, RRT 1.12 [2, 17]: 0.47%
- HPLC peak area, QTX125 RRT 1.00 [2, 18]: 94.43%
- HPLC peak area, RRT 1.04 [2, 18]: 1.70%
- HPLC peak area, RRT 1.12 [2, 18]: 0.47%
- degradation (in words) ([2]; sealed under nitrogen in amber glass bottles, forced illumination): degrades slightly
- colour change of the solid material [2, 19]: change in colour from off white/beige to brown
- HPLC peak area, QTX125 RRT 1.00 [2, 20]: 96.74%
- HPLC peak area, RRT 1.04 [2, 20]: 1.32%
- HPLC peak area, RRT 1.12 [2, 20]: 0.35%
- HPLC peak area, QTX125 RRT 1.00 [2, 21]: 95.97%
- HPLC peak area, RRT 1.04 [2, 21]: 1.51%
- HPLC peak area, RRT 1.12 [2, 21]: 0.38%
- HPLC peak area, QTX125 RRT 1.00 [2, 22]: 89.64%
- HPLC peak area, RRT 1.04 [2, 22]: 4.38%
- HPLC peak area, RRT 1.12 [2, 22]: 0.60%
- HPLC peak area, QTX125 RRT 1.00 [2, 23]: 84.46%
- HPLC peak area, RRT 1.04 [2, 23]: 6.61%
- HPLC peak area, RRT 1.12 [2, 23]: 0.90%
- degradation (in words) [2, 19]: degrades under forced illumination to two principal components
- colour change of the solid material [2, 24]: change in colour from off white/beige to brown
- HPLC peak area, QTX125 RRT 1.00 [2, 25]: 96.74%
- HPLC peak area, RRT 1.04 [2, 25]: 1.32%
- HPLC peak area, RRT 1.12 [2, 25]: 0.35%
- HPLC peak area, QTX125 RRT 1.00 [2, 26]: 95.81%
- HPLC peak area, RRT 1.04 [2, 26]: 1.61%
- HPLC peak area, RRT 1.12 [2, 26]: 0.39%
- HPLC peak area, QTX125 RRT 1.00 [2, 27]: 88.70%
- HPLC peak area, RRT 1.04 [2, 27]: 4.64%
- HPLC peak area, RRT 1.12 [2, 27]: 0.63%
- HPLC peak area, QTX125 RRT 1.00 [2, 28]: 83.01%
- HPLC peak area, RRT 1.04 [2, 28]: 7.15%
- HPLC peak area, RRT 1.12 [2, 28]: 0.90%
- degradation (in words) [2, 24]: degrades under forced illumination to two principal components
